Consider eleven molecules from ChEMBL document CHEMBL3822376, “Potent anticholinesterasic and neuroprotective pyranotacrines as inhibitors of beta-amyloid aggregation, oxidative stress and tau-phosphorylation for Alzheimer's disease” (Eur J Med Chem, 2016).

Data set [1] can be described thus: in vitro. The settings on record: human, SH-SY5Y cells.
Description: Neurotoxicity in human SH-SY5Y cells assessed as cell viability at 1 uM after 24 hrs by XTT assay relative to control
Data set [2] in a line: in vitro. The settings on record: human, SH-SY5Y cells. The source holds these as a separate data set.
Description: Neurotoxicity in human SH-SY5Y cells assessed as cell viability at 10 uM after 24 hrs by XTT assay relative to control
The nature of data set [3]: in vitro. The settings on record: human, HepG2 cells.
Description: (§1) Hepatotoxicity in human HepG2 cells assessed as reduction in cell viability by MTT assay
Data set [4] has as its system SH-SY5Y. Nature of the data set: Neuroprotective activity against amyloid beta (1 to 40)-induced cell death in human SH-SY5Y cells assessed as increase in cell viability at 10 uM after 48 hrs by XTT assay. The class given is functional, cell-based. (Tetrazolium assays rely on reduction of a dye to a coloured formazan, in cell work by metabolically active cells.)
Data set [5] in a line: in vitro. The settings on record: human, SH-SY5Y cells. The source holds these as a separate data set.
Description: Neurotoxicity in human SH-SY5Y cells assessed as cell viability at 5 uM after 24 hrs by XTT assay relative to control
For data set [6], the target named is Acetylcholinesterase (Electrophorus electricus, UniProt O42275).
Description: Inhibition of electric eel AChE using acetylcholine as substrate preincubated for 15 mins followed by substrate addition by Ellman's method
In data set [7] the target is Cholinesterase (Equus caballus) (UniProt P81908). Kind of data set: Inhibition of horse serum BuChE using […] as substrate at 50 uM preincubated for 15 mins followed by substrate addition by Ellman's method relative to control. On the technique in general: Ellman's reagent forms a yellow product with free thiols.
For data set [8], the system named is SH-SY5Y. Kind of data set: Neuroprotective activity in human SH-SY5Y cells assessed as reversal of 15 nM okadaic acid-induced cell death at 1 to 10 uM after 24 hrs by XTT assay. The format is functional, cell-based.
Data set [9] is described as follows: in vitro. Particulars: human, SH-SY5Y cells. This is another data set of the same source.
Description: Neurotoxicity in human SH-SY5Y cells assessed as cell viability at 50 uM after 24 hrs by XTT assay relative to control
The test system of data set [10] is SH-SY5Y. Nature of the data set: cells. Particulars: Homo sapiens, 24 h.
Description: Neuroprotective activity against rotenone/oligomycin-A-induced cell death in human SH-SY5Y cells assessed as increase in cell viability after 24 hrs by XTT assay
Data set [11] is described as follows: in vitro. Particulars: human, SH-SY5Y cells. The source holds these as a separate data set.
Description: Neurotoxicity in human SH-SY5Y cells assessed as cell viability at 25 uM after 24 hrs by XTT assay relative to control
Data set [12] has as its system SH-SY5Y. Kind of data set: Neuroprotective activity in human SH-SY5Y cells assessed as reversal of 20 nM okadaic acid-induced cell death at 1 to 10 uM after 24 hrs by XTT assay. The class given is functional, cell-based.
Data set [13] can be described thus: in vitro. Particulars: human, SH-SY5Y cells. This is another data set of the same source.
Description: Neurotoxicity in human SH-SY5Y cells assessed as cell viability at 0.1 uM after 24 hrs by XTT assay relative to control
Data set [14] concerns HepG2.
Description: as §1
A short description of data set [15]: in vitro. The settings on record: human, HepG2 cells. This is another data set of the same source.
The target of data set [16] is Acetylcholinesterase (Electrophorus electricus) (UniProt O42275). Kind of data set: Inhibition of electric eel AChE-induced amyloid beta (1 to 40) aggregation at 25 uM measured every 24 hrs for 7 days by Thioflavin T based fluorometric assay relative to control.

The structures appear in SMILES notation. Activity calls are given as the source filed them. No cut-off for these calls is given here.

Sequence of Acetylcholinesterase (O42275 whole entry): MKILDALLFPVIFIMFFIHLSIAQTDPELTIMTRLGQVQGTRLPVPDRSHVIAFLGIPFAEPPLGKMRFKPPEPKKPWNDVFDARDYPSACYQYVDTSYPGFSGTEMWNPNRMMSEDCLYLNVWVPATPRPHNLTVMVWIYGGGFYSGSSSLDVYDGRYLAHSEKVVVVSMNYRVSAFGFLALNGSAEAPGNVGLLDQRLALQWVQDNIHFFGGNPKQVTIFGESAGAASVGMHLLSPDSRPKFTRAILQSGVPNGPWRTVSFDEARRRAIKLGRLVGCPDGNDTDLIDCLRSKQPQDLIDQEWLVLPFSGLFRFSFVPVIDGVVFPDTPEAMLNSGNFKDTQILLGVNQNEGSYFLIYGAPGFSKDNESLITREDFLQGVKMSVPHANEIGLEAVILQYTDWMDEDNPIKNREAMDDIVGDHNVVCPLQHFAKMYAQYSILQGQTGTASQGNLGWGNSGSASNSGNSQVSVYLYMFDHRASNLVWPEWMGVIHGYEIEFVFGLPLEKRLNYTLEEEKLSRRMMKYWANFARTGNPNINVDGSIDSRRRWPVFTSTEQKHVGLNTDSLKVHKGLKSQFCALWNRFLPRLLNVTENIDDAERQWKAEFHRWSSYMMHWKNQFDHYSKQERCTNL
Sequence of Cholinesterase (Equus caballus) (P81908 whole entry): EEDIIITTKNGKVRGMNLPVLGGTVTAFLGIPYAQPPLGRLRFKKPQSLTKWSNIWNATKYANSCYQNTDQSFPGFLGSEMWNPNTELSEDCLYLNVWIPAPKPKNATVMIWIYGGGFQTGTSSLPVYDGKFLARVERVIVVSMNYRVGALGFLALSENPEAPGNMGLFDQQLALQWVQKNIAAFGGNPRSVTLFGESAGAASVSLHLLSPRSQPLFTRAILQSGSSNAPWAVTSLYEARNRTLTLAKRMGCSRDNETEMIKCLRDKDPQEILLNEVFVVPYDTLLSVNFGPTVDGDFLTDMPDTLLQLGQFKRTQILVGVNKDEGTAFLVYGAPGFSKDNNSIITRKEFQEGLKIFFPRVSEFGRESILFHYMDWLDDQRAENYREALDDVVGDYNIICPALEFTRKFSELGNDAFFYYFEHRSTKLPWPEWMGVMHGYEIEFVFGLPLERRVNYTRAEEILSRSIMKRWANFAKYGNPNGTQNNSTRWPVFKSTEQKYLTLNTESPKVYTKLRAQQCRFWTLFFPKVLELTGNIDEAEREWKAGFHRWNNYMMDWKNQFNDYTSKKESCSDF
Sequence of Acetylcholinesterase (Electrophorus electricus) (O42275 24-633 limits assumed): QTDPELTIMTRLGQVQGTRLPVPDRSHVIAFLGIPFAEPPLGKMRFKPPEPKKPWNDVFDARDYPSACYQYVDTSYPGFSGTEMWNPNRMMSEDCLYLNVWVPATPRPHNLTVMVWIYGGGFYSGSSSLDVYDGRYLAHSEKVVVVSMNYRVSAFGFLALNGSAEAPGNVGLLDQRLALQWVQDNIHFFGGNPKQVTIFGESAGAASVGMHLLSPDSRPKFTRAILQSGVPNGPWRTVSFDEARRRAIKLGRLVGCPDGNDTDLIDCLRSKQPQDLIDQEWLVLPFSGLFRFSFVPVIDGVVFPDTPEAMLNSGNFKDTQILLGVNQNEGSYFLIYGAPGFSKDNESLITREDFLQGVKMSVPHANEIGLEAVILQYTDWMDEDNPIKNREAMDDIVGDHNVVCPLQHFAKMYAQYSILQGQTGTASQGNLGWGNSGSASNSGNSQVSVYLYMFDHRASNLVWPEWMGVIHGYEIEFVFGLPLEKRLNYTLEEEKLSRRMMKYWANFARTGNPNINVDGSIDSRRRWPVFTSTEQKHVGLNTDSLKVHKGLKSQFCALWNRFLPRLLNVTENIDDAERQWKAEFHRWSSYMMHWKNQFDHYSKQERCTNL

On to `CCOC(=O)C1=C(C)Oc2nc3c(c(N)c2C1c1cc2cc(C)ccc2nc1Cl)CCCC3` (configuration not stated), for which the viability at 24 h, 1 µM in data set [1] is 82.9%. The viability at 24 h, 10 µM in [2] is 97.2%. Further, the EC50 in [3] stood at 128 µM; in data set [10], 2.43 µM. The result in data set [4], in [8] and in [12] was Active. Besides, the viability at 24 h, 5 µM in [5] worked out at 101%. Moreover, the IC50 in [6] was determined as 0.54 µM. Besides, in data set [7], the inhibition came to 50%. For the same molecule, the viability at 24 h, 50 µM in [9] is 80.2%. Moreover, the viability at 24 h, 25 µM in data set [11] was 112%. Moreover, the viability at 24 h, 0.1 µM in [13] worked out at 90.1%.

With `COc1ccc2cc(C3C4=C(CC(C)(C)CC4=O)Oc4nc5c(c(N)c43)CCC5)c(Cl)nc2c1` (configuration not stated), the viability at 24 h, 1 µM in [1] came to 91.6%. The viability at 24 h, 10 µM in [2] was 102%. Besides, the viability at 24 h, 5 µM in data set [5] was 113%. Further, in data set [6], half-maximal inhibition (IC50) was put at 0.58 µM. Also, the EC50 in data set [14] came to 1920 µM; in [10], 0.63 µM. Moreover, the viability at 24 h, 50 µM in data set [9] was 94.9%. In data set [11], the viability at 24 h, 25 µM is 124%. Further, the outcome in data set [12] was inactive. Also, in [13], the viability at 24 h, 0.1 µM worked out at 85%. The selectivity ratio in data set [15] was 11.

With `CCOC(=O)C1=C(C)Oc2nc3c(c(N)c2C1c1cc2ccc(OC)cc2nc1Cl)CCCC3` (configuration not stated), the viability at 24 h, 1 µM in data set [1] came to 130%. For the same molecule, the viability at 24 h, 10 µM in [2] is 125%. The 50% effective concentration (EC50) in data set [3] was 942 µM; in [10], 2.3 µM. The viability at 24 h, 5 µM in data set [5] turned out to be 131%. The molecule also had an IC50 in data set [6] of 1.52 µM. Moreover, in data set [7], the inhibition worked out at 50%. Moreover, in [9], the viability at 24 h, 50 µM was 129%. Further, in [11], the viability at 24 h, 25 µM came out at 123%. Besides, in [12], the result was Active. For the same molecule, the viability at 24 h, 0.1 µM in data set [13] came to 103%.

For the molecule `COc1ccc2cc(C3C4=C(CC(C)(C)CC4=O)Oc4nc5c(c(N)c43)CCCCC5)c(Cl)nc2c1` (configuration not stated), the viability at 24 h, 1 µM in data set [1] was found to be 97.3%. The viability at 24 h, 10 µM in data set [2] was 97.3%. Also, the EC50 was 330 µM in [3] and 5.6 µM in [10]. Moreover, the viability at 24 h, 5 µM in data set [5] amounted to 111%. The molecule further returned an IC50 in [6] of 2.81 µM. Also, the viability at 24 h, 50 µM in [9] turned out to be 103%. The viability at 24 h, 25 µM in data set [11] was found to be 118%. For the same molecule, the outcome in data set [12] was Active. Besides, in [13], the viability at 24 h, 0.1 µM turned out to be 92.2%.

Regarding `COc1ccc2cc(C3C4=C(CC(C)(C)CC4=O)Oc4nc5c(c(N)c43)CCCC5)c(Cl)nc2c1` (configuration not stated), the viability at 24 h, 1 µM in data set [1] came out at 95.6%. Also, the viability at 24 h, 10 µM in [2] came to 103%. Further, the EC50 was found to be 922 µM in data set [3] and 12.2 µM in [10]. The result in [4] and in [12] was Active. Moreover, the viability at 24 h, 5 µM in data set [5] was 113%. The IC50 in [6] was determined as 14.8 µM. In data set [9], the viability at 24 h, 50 µM came out at 90.6%. Besides, the viability at 24 h, 25 µM in data set [11] stood at 113%. In data set [13], the viability at 24 h, 0.1 µM worked out at 93.8%.

Regarding `COC(=O)C1=C(C)Oc2nc3c(c(N)c2C1c1cc2ccc(OC)cc2nc1Cl)CCCCC3` (configuration not stated), the viability at 24 h, 1 µM in [1] turned out to be 93.2%. The viability at 24 h, 10 µM in data set [2] is 85.1%. For the same molecule, the EC50 in data set [3] came out at 745 µM; in [10] it was 5.63 µM. In addition, the result in [4] and in data set [12] was Active. The viability at 24 h, 5 µM in data set [5] was determined as 95.9%. In data set [6], this molecule came in with an IC50 of 1.87 µM. Further, the inhibition in [7] is 50%. Also, in data set [9], the viability at 24 h, 50 µM was 75.1%. Further, in data set [11], the viability at 24 h, 25 µM worked out at 98.6%. Also, the viability at 24 h, 0.1 µM in data set [13] came out at 90.8%.

In the case of `CCOC(=O)C1=C(C)Oc2nc3c(c(N)c2C1c1cc2cc(OC)ccc2nc1Cl)CCCC3` (configuration not stated), in data set [1], the viability at 24 h, 1 µM is 110%. Besides, in data set [2], the viability at 24 h, 10 µM worked out at 116%. Moreover, the EC50 in [3] stood at 73 µM; in [10] it was 0.34 µM. Further, in data set [5], the viability at 24 h, 5 µM is 135%. For the same molecule, the IC50 in [6] was 2.23 µM. For the same molecule, the viability at 24 h, 50 µM in data set [9] is 68.5%. In data set [11], the viability at 24 h, 25 µM was 125%. Moreover, the result in data set [12] was inactive. Also, the viability at 24 h, 0.1 µM in data set [13] came to 128%.

As to `CCOC(=O)C1=C(C)Oc2nc3c(c(N)c2C1c1cc2cccc(OC)c2nc1Cl)CCCC3` (configuration not stated), the viability at 24 h, 1 µM in [1] came to 91.9%. For the same molecule, the viability at 24 h, 10 µM in data set [2] worked out at 96.5%. Further, the viability at 24 h, 5 µM in data set [5] was 100%. In [6], the IC50 was found to be 0.61 µM. Also, the EC50 in data set [14] was determined as 1080 µM; in data set [10] it was 1.95 µM. For the same molecule, the outcome in [8] and in data set [12] was Active. Besides, in data set [9], the viability at 24 h, 50 µM was 99.5%. Moreover, in [11], the viability at 24 h, 25 µM was determined as 100%. For the same molecule, the viability at 24 h, 0.1 µM in data set [13] was 107%.

As for `CCOC(=O)C1=C(C)Oc2nc3c(c(N)c2C1c1cc2ccc(OC)cc2nc1Cl)CCCCC3` (configuration not stated), in [1], the viability at 24 h, 1 µM amounted to 99%. The viability at 24 h, 10 µM in data set [2] was found to be 106%. The EC50 in data set [3] worked out at 656 µM; in [10], 4.7 µM. Moreover, the result in [4] was Active. Besides, in data set [5], the viability at 24 h, 5 µM came out at 125%. For the same molecule, the IC50 in data set [6] was 9.8 µM. Also, the viability at 24 h, 50 µM in [9] was found to be 106%. Moreover, the viability at 24 h, 25 µM in [11] worked out at 109%. Further, the result in data set [12] was inactive. In data set [13], the viability at 24 h, 0.1 µM came to 84.2%.

`CCOC(=O)C1=C(C)Oc2nc3c(c(N)c2C1c1cc2ccc(OC)cc2nc1Cl)CCC3` (configuration not stated): the viability at 24 h, 1 µM in data set [1] stood at 135%. The viability at 24 h, 10 µM in [2] amounted to 116%. The EC50 in [3] is 931 µM; in data set [10], 2.4 µM. The viability at 24 h, 5 µM in [5] is 119%. For the same molecule, the IC50 in data set [6] was 4.02 µM. Besides, in data set [16], the inhibition was 28.3%. For the same molecule, in data set [9], the viability at 24 h, 50 µM amounted to 112%. Also, the viability at 24 h, 25 µM in [11] was 106%. The result in [12] was Active. Besides, in [13], the viability at 24 h, 0.1 µM was 115%.

As for `COC(=O)C1=C(C)Oc2nc3c(c(N)c2C1c1cc2ccc(OC)cc2nc1Cl)CCC3` (configuration not stated), the viability at 24 h, 1 µM in data set [1] is 94.2%. Moreover, the viability at 24 h, 10 µM in data set [2] turned out to be 98%. Besides, the figures for the EC50 in data set [3] and in data set [10] were 540 µM and 11.8 µM, respectively. The outcome in data set [4] and in [12] was Active. Moreover, in data set [5], the viability at 24 h, 5 µM was 114%. Moreover, inhibition in [6] was half-maximal at 1.66 µM (IC50). For the same molecule, the viability at 24 h, 50 µM in data set [9] is 93.2%. Further, the viability at 24 h, 25 µM in data set [11] is 118%. Moreover, the viability at 24 h, 0.1 µM in data set [13] came to 104%.

In general, viability refers to a read-out of living cells in per cent, often relative to untreated cells. What is called EC50 is the concentration needed to bring the measured effect to its halfway point. Low values mean higher potency in that assay, high ones lower potency in that assay. As a reminder, the IC50 is the concentration that gives 50% inhibition. The low end stands for greater potency, the high end for weaker potency. What is called inhibition is how much of the control response was suppressed. Low values mean little suppression, high ones strong suppression.
